Assay results published in ChEMBL document CHEMBL1201862, “PubChem BioAssay data set” (2004).
Activity calls are given as the source filed them.

Key:
Estrogen receptor = biological target: T1, Estrogen receptor (Homo sapiens, UniProt P03372); experiment: ERα coactivator recruitment enhancers – biochemical, TR-FRET, ERα LBD, dose response (AID 737)
T1 sequence (P03372 whole entry): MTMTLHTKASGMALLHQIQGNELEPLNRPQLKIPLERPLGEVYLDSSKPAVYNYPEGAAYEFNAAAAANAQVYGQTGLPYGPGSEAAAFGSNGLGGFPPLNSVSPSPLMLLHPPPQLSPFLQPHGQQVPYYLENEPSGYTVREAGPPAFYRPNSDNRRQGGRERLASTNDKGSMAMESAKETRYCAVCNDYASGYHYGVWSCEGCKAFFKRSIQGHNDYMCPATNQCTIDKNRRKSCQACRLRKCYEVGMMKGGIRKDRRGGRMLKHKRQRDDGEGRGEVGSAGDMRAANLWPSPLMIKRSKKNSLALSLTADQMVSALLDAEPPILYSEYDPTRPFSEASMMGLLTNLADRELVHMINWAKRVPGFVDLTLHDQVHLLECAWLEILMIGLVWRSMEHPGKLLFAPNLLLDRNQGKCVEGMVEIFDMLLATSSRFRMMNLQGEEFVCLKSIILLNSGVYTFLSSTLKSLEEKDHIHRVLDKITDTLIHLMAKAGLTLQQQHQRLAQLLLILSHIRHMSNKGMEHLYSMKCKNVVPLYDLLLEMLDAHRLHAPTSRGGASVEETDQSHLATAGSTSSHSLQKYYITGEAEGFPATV

[1] = biological target: T2, Heat shock factor protein 1 (Mus musculus, UniProt P38532); experiment: decrease of HSF1-responsive luciferase luminescence – cell-based, NIH3T3, dose retest, confirmation (AID 2382); type: functional;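 also: NIH3T3 fibroblasts with HSF1-driven luciferase reporter stressed by proteasome inhibitor MG132; luminescence from HSF1-driven luciferase expression after 8 hours of MG132 stress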
T2 sequence (P38532 whole entry): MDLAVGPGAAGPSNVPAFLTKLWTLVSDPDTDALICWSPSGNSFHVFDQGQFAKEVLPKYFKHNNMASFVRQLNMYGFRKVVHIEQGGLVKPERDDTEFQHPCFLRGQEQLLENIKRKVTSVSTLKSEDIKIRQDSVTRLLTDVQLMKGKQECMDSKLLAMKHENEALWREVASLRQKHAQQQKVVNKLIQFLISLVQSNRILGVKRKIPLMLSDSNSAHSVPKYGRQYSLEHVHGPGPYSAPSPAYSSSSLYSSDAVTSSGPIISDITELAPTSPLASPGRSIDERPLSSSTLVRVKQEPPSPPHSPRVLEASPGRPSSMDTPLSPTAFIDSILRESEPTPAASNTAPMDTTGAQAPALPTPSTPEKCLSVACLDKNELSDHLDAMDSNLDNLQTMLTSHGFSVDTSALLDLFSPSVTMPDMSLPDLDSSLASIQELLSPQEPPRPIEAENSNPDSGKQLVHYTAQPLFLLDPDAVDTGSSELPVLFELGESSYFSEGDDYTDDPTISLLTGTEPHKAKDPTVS

NADPH oxidase 1 [2] = biological target: T3, NADPH oxidase 1 (Homo sapiens, UniProt Q9Y5S8); experiment: Luminescence-based cell-based dose response assay to identify inhibitors of NADPH oxidase 1 (NOX1).; type: functional
T3 sequence (Q9Y5S8 whole entry): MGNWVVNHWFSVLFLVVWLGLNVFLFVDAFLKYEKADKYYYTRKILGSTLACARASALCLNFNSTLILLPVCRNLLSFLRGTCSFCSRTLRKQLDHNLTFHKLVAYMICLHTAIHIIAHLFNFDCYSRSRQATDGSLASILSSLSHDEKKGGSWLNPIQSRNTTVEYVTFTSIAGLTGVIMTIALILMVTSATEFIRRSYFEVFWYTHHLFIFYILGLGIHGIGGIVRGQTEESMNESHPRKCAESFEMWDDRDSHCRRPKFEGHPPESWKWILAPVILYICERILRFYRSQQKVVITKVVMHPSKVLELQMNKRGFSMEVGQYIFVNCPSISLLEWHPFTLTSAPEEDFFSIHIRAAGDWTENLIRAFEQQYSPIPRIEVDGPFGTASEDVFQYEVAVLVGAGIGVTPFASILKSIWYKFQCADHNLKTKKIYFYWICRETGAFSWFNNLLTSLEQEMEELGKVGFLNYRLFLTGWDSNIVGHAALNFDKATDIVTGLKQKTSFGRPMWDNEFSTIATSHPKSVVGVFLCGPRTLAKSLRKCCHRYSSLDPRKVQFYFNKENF

NADPH oxidase 1 [3] = biological target: T3, NADPH oxidase 1; experiment: Late-stage luminescence-based cell-based dose response assay to identify inhibitors of NADPH oxidase 1 (NOX1): Synthesized analogs.; type: functional
[4] = biological target: T4, Short transient receptor potential channel 4 (Mus musculus, UniProt Q9QUQ5); experiment: block of DAMGO-driven TRPC4 calcium entry – cell-based, HEK293 TRPC4/mu-opioid, Fluo-4 calcium, dose response (AID 434942); type: functional;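 also: potency of inhibitors blocking the TRPC4 calcium response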
T4 sequence (Q9QUQ5 whole entry): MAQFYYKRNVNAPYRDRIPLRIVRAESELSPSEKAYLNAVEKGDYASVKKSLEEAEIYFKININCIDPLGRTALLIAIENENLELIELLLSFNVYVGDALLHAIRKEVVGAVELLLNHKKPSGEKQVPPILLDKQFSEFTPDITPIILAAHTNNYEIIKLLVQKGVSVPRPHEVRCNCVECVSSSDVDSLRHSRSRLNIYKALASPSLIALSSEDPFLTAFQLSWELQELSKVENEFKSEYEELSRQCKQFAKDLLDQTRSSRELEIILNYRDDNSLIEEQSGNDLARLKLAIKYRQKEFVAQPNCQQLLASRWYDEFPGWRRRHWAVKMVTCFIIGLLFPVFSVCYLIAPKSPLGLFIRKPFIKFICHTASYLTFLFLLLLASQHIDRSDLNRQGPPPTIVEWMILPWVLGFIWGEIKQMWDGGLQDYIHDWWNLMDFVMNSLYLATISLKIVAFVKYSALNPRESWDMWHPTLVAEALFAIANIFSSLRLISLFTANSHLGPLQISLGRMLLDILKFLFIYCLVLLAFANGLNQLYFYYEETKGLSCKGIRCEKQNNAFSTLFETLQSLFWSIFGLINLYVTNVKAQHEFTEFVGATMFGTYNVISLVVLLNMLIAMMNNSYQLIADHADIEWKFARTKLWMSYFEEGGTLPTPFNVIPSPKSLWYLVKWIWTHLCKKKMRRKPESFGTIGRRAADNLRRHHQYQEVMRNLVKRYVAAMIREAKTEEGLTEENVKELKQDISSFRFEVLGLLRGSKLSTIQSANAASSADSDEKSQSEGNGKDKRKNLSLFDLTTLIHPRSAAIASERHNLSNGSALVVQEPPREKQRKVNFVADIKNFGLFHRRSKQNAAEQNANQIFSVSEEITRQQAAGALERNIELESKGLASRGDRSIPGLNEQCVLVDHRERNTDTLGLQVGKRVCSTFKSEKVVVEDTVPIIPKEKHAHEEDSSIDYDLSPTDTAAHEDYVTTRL

HEK293 [5] = experiment: SAR Analysis of small molecule inhibitors of T-cell specific antigen receptor-induced NF-kB activation in a HEK-293T cell line using a luminescence assay - Set 2. [Related pubchem assays (depositor defined):AID435003, AID435012, AID489026]; type: functional, cell-based; conditions: Homo sapiens
HeLa = experiment: Cytotoxicity counterscreen assay for transcriptional activators of heat shock protein 70 (Hsp70). [Related pubchem assays: 1203, 1252 ]; type: functional; conditions: Homo sapiens;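 also: cells exposed to compound for 16 hours before readout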
HEK293 [6] = experiment: HEK293T cell viability loss, resazurin readout – resazurin fluorescence, cytotoxicity control for NF-kB activator project, SAR follow-up (AID 493251); type: functional, cell-based; conditions: Homo sapiens
[7] = biological target: T5, Microphthalmia-associated transcription factor (Homo sapiens, UniProt O75030); experiment: reducers of TRPM1 reporter luminescence, concentration series – cell-based, SK-MEL-5, cherry-picked, set 3, MITF inhibitor project, dose response (AID 493073); type: functional;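 also: SK-MEL-5 melanoma cells with luciferase driven by the MITF target TRPM1 promoter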
T5 sequence (O75030 whole entry): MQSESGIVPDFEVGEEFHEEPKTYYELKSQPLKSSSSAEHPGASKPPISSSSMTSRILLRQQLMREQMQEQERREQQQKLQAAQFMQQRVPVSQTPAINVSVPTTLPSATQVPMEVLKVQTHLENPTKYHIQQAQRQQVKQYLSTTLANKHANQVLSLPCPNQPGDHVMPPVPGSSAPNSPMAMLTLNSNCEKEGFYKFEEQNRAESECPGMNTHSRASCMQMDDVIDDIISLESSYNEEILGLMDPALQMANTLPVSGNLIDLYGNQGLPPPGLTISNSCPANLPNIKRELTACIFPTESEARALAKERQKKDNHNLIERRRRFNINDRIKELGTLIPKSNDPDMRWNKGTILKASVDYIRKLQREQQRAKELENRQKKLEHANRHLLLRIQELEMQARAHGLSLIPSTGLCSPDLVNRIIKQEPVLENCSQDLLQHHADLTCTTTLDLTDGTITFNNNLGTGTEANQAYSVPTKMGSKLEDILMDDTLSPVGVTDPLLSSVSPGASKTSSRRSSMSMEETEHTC

Jurkat = experiment: SAR Analysis of small molecule inhibitors of T-cell specific antigen receptor-induced NF-kB activation in a Jurkat cell line using a luminescence assay - Set 2. [Related pubchem assays (depositor defined):AID435003, AID435012, AID465]; type: functional, cell-based; conditions: Homo sapiens
NADPH oxidase 1 [8] = biological target: T3, NADPH oxidase 1; type: functional, cell-based
H9c2 = experiment: cells; type: functional, cell-based; conditions: Rattus norvegicus, H9c2, Myocardium;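 also: confirmatory concentration-response retest of ultra-high-throughput screening hits for modulation of myocardial damage; cell death induced by hydrogen peroxide oxidative stress; compound pretreatment for 60 min then peroxide exposure for 2 h; potency is for protecting the cells against peroxide damage rather than for killing them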
Estrogen receptor beta [9] = biological target: T6, Estrogen receptor beta (Homo sapiens, UniProt Q92731); experiment: blockers of SRC-3 recruitment to ERβ – biochemical, ELISA, streptavidin-HRP readout, orthogonal assay, confirmation (AID 1060)
Estrogen receptor beta [10] = biological target: T6, Estrogen receptor beta
BJ [11] = experiment: growth inhibition of engineered Ras-driven BJ cells – cell-based, alamar blue fluorescence, cherrypicked samples, dose response (AID 2631); type: functional; conditions: Homo sapiens;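 also: confirmatory dose-response assay in RAS-dependent BJ fibroblasts engineered with TERT, LT and ST, with cytotoxicity read by fluorescence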
BJ [12] = experiment: BJ-TERT-LT-ST fibroblast viability loss – cell-based, RAS-independent, luminescence, dose response (AID 1935); type: functional; conditions: Homo sapiens;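 also: BJ fibroblasts immortalized with TERT plus LT and ST oncogenes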
[13] = DRD fibroblast viability loss – cell-based, non-viral oncogenic, luminescence, dose response (AID 1934); type: functional; conditions: Homo sapiens
BJ [14] = experiment: cells; type: functional, cell-based; conditions: Homo sapiens
BJ [15] = experiment: BJ-TERT fibroblast viability loss – cell-based, RAS-independent, luminescence, dose response (AID 1933); type: functional; conditions: Homo sapiens
[16] = Luminescence-based dose response cell-based high throughput screening assay for cytotoxic compounds using the IEC-6 intestinal epithelial cell line. [Related pubchem assays: 1858 (Summary AID.), 1825 (Counterscreen.), 1907 (Confirmation screen.)]; type: functional
[17] = tested on: Streptococcus sp. 'group A'; experiment: Streptococcus pyogenes SK(-)GAS viability under kanamycin – luminescence, BacTiterGlo, confirmation, counter-screen for streptokinase expression inhibitor project, dose response (AID 1900); type: functional, organism-based
Streptococcus = experiment: GAS UMAA2166 growth inhibition – luminescence, BacTiterGlo, counter-screen for streptokinase expression inhibitor project, dose response (AID 1915); type: functional, organism-based;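 also: potency for reduction of bacterial viability or growth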
Streptokinase A = biological target: T7, Streptokinase A (Streptococcus pyogenes serotype M1, UniProt P10520); experiment: viability-normalized secreted streptokinase activity reduction – plasminogen activation absorbance, OD405, dose response (AID 1914); type: functional, Streptococcus pyogenes M1 GAS;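 also: secreted streptokinase activity via plasminogen activation per viability signal from cell pellet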
T7 sequence (P10520 whole entry): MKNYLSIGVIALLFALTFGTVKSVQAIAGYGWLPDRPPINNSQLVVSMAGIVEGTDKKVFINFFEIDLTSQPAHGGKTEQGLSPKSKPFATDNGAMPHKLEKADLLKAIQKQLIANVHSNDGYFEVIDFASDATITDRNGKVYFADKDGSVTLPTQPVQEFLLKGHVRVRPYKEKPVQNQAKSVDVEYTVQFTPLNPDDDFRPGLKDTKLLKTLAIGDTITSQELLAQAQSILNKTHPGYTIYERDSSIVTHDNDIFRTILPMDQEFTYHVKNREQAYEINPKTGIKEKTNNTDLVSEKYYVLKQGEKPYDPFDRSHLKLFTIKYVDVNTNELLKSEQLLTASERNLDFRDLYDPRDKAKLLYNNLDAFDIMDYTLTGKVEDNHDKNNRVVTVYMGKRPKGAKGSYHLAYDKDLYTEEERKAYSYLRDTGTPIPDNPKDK

[18] = biological target: Voltage-gated inwardly rectifying potassium channel KCNH2 (Homo sapiens, UniProt Q12809); experiment: concentration-dependent hERG rescue from blockers – cell-based, thallium flux, dose response (AID 2121); type: ADME
Sequence of Voltage-gated inwardly rectifying potassium channel KCNH2 (Q12809 whole entry): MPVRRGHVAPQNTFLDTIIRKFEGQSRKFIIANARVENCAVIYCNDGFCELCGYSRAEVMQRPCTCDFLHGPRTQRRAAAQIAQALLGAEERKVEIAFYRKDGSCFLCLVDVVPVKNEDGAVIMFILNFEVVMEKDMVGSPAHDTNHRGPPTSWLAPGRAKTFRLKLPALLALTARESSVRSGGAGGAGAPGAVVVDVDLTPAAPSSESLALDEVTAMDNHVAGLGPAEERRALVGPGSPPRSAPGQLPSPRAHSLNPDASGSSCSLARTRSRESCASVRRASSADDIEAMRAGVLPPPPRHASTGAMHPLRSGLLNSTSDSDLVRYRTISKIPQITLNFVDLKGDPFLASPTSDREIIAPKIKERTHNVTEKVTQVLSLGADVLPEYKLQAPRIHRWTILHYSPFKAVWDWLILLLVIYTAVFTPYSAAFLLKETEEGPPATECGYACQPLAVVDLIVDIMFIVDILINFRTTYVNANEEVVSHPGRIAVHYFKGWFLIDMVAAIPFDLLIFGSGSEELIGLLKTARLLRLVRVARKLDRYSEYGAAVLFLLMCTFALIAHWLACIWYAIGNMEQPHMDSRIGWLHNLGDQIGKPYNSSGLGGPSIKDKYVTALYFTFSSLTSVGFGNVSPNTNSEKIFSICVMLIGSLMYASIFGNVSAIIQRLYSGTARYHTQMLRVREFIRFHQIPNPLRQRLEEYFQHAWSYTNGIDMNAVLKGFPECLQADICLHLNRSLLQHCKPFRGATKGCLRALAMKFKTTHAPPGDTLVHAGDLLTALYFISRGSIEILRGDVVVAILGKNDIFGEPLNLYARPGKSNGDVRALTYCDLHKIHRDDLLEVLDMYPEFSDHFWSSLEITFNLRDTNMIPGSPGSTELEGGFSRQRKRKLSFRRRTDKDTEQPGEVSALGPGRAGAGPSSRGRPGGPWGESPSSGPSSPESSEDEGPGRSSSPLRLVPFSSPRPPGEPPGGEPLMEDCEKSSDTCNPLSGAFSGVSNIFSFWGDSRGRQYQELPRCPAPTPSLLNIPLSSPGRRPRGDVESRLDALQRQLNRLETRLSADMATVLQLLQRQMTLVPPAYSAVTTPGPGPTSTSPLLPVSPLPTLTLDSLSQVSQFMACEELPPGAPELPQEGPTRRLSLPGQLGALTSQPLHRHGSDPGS

T6 sequence (Q92731 whole entry): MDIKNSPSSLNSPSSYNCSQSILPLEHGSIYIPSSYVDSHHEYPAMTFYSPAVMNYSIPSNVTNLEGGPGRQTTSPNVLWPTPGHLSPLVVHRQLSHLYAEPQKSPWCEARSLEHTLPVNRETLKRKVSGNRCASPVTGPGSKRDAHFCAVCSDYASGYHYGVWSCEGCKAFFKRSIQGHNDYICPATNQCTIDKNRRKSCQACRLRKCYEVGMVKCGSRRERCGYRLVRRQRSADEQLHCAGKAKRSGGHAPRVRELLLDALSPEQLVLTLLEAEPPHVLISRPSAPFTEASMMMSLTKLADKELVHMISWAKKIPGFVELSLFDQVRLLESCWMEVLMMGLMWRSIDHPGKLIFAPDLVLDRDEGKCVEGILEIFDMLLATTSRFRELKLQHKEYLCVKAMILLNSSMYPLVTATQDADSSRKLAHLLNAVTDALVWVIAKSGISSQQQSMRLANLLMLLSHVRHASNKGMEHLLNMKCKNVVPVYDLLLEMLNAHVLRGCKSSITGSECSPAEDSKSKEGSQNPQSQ

O=C(c1cc2sccc2n1Cc1ccccc1)N1CCc2ccccc21
EC50 (Estrogen receptor): 23.4 µM (active)

CC(=O)c1ccc2c(c1)N(C)c1ccccc1S2
EC50 [1]: > 195 µM (not active)
IC50 (NADPH oxidase 1 [2]): 1 µM (active)
IC50 (NADPH oxidase 1 [3]): 2.36 µM (active)
EC50 [4]: 7.5 µM (active)

O=C(Nc1ccc(N2CCCC2)c(Cl)c1)c1ccc([N+](=O)[O-])o1
IC50 (HEK293 [5]): 33.9 µM (inactive)
CC50 (HeLa): 5.12 µM (active)
IC50 (HEK293 [6]): 42 µM (inactive)
AC50 [7]: 11.1 µM (active)
IC50 (Jurkat): 17.8 µM (active)

O=C(O)c1nc(Cl)c(Cl)c(N/N=C/c2ccccc2)c1Cl
IC50 (NADPH oxidase 1 [8]): > 17 µM (not active)

COc1ccccc1N1CCN(C(=O)c2ccc3nc(-c4ccco4)c(-c4ccco4)nc3c2)CC1
IC50 (H9c2): 11.7 µM (active)
IC50 (Estrogen receptor beta [9]): 9.53 µM (not active)
IC50 (Estrogen receptor beta [10]): 5.96 µM (active)

CC(C)(C)c1ccc(C(=O)Nc2ccc(C(=O)NCc3cccnc3)cc2)cc1
EC50 (BJ [11]): 0.549 µM (active)
EC50 (BJ [12]): 0.88 µM (inconclusive)
EC50 [13]: > 150 µM (not active)
EC50 (BJ [14]): 0.515 µM (active)
EC50 (BJ [15]): 25.5 µM (active)
IC50 [16]: 0.177 µM (active)

COc1ccc(N2CCN(C(=S)NC(=O)c3cccs3)CC2)c([N+](=O)[O-])c1
EC50 [17]: 9.37 µM (active)
EC50 (Streptococcus): 24.5 µM (active)
EC50 (Streptokinase A): > 150 µM (not active)
EC50 [18]: 12.2 µM (active)
